Reference: patent US7049323B2, “Amidoheterocycles as modulators of the melanocortin-4 receptor” (Bristol-Myers Squibb Company, priority 2003, dated 2006)

Columns and labels:
[1] = biological target: T1, cloned human MC4R receptors (Homo sapiens, UniProt P32245); test: Melanocortin MC4R membrane binding assay ([125I]NDP-α-MSH competition); details: [125I]NDP-α-MSH 0.1 nM, membranes of Hi5 insect cells or HEK-293 cells, 90 minutes at 37° C.
T1 construct: expressed in transfected cells; host or cells: Hi5 insect cells or HEK-293 cells (baculovirus/human MC4R receptor construct); membranes
Method: Melanocortin MC4R Binding Assay. […] A membrane binding assay was used to identify competitive ligands of [^125I]NDP-α-MSH binding to cloned human MC4R receptors expressed in Hi5 insect cells or HEK-293 cells transfected by a baculovirus/human MC4R receptor construct. The membrane binding buffer was composed of 25 mM HEPES, pH 7.4, 140 mM NaCl, 1.2 mM MgCl2, 2.5 mM CaCl2, and 0.1% BSA Membrane protein (0.5 μg) and [^125I]-NDP-α-MSH (to a final concentration of 0.1 nM) were added. Competing ligands or a buffer blank were added and incubated for 90 minutes at 37° C. After filtration, the cell membranes were evaluated in a Wallac Microbeta Trilux Scintillation and Luminescence Counter (Model 1450). Dose-response cureves were fitted by […] analyses and IC50 values are calculated using ExcelFit.

[2] = system: Rodents (NPY, ob/ob, agouti, fasted feeding models); details: injected intracerebroventricularly (ICV); cited from earlier work
[3] = system: male volunteers / patients with psychogenic erectile dysfunction; details: cited from earlier work
[4] = intramuscular, 0.005–0.03 mg/kg, three normal male volunteers

T1 sequence (P32245 whole entry): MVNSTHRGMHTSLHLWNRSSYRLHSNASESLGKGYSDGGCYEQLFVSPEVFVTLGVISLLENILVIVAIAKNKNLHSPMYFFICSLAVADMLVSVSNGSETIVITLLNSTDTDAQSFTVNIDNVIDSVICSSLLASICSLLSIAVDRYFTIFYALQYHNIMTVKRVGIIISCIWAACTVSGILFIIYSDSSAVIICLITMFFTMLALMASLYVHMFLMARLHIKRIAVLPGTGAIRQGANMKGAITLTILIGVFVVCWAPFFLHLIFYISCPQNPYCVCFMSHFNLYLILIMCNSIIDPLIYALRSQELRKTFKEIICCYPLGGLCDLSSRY

Compound | IC50 [1] | other results
CS(=O)(=O)N(C1CCCC1)[C@H]1CCN(C(=O)[C@@H](Cc2ccc(Cl)cc2)NC(=O)CCN)C1 [Example 50] | 1 to 10 µM | –
CC(C)CC(=O)N(C1CCCC1)[C@H]1CCN(C(=O)[C@@H](Cc2ccc(Cl)cc2)NC(=O)CCN)C1 [Example 51] | 0.25 to 1 µM | –
CC(C)N([C@H]1CCN(C(=O)[C@@H](Cc2ccc(Cl)cc2)NC(=O)CCN)C1)S(C)(=O)=O [Example 53] | 1 to 10 µM | –
CN(C)CCC(=O)N[C@H](Cc1ccc(Cl)cc1)C(=O)N1CC[C@H](N(C2CCCCC2)S(C)(=O)=O)C1 [Example 56] | 1 to 10 µM | –
CN(C)CCC(=O)N[C@H](Cc1ccc(Cl)cc1)C(=O)N1CC[C@H](N(C=O)C2CCCCC2)C1 [Example 59] | 1 to 10 µM | –
CC(C)N([C@H]1CCN(C(=O)[C@@H](Cc2ccc(Cl)cc2)NC(=O)CCN(C)C)C1)S(C)(=O)=O [Example 62] | 1 to 10 µM | –
CC(C)CC(=O)N(CC(C)C)[C@H]1CCN(C(=O)[C@@H](Cc2ccc(Cl)cc2)NC(=O)CCN(C)C)C1 [Example 66] | 1 to 10 µM | –
CN(C)CCC(=O)N[C@H](Cc1ccc(Cl)cc1)C(=O)N1CC[C@H](N(C2CCCCC2)S(=O)(=O)c2ccccc2)C1 [Example 67] | < 0.25 µM | –
CC(C)C(=O)N(C1CCCCC1)[C@H]1CCN(C(=O)[C@@H](Cc2ccc(Cl)cc2)NC(=O)[C@H]2CCN2C)C1 [Example 68] | 0.25 to 1 µM | –
CC(C)C(=O)N(C1CCCCC1)[C@H]1CCN(C(=O)[C@@H](Cc2ccc(Cl)cc2)NC(=O)[C@@H]2CCN2C)C1 [Example 69] | < 0.25 µM | –
SHU-9119 | – | food intake [2]: reverses this effect and can induce hyperphagia
melanotan-II [MT-II] | – | food intake [2]: reduced food intake; penile erections [3, 4]: caused intermittent non-painful penile erections; period of erections after dosing [3, 4]: 1 to 5 h; erections ([3]; subcutaneous, 0.025 mg/kg and 0.1 mg/kg, 10 patients with psychogenic erectile dysfunction): caused transient erections; responders ([3]; subcutaneous, 0.025 mg/kg and 0.1 mg/kg, of 10 patients with psychogenic erectile dysfunction): 8; onset of erections ([3]; subcutaneous, 0.025 mg/kg and 0.1 mg/kg, patients with psychogenic erectile dysfunction): 50 to 180 min

Continued, in another order:

IC50 [1] | Compound | other results
1 to 10 µM | NCCC(=O)N[C@H](Cc1ccc(Cl)cc1)C(=O)N1CC[C@H](N(C(=O)c2ccco2)C2CCCC2)C1 [Example 52] | –
1 to 10 µM | CC(C)N(C(=O)c1ccco1)[C@H]1CCN(C(=O)[C@@H](Cc2ccc(Cl)cc2)NC(=O)CCN(C)C)C1 [Example 55] | –
1 to 10 µM | CC(=O)N(C1CCCCC1)[C@H]1CCN(C(=O)[C@@H](Cc2ccc(Cl)cc2)NC(=O)CCN(C)C)C1 [Example 58] | –
< 0.25 µM | CC(C)C(=O)N(C1CCCCC1)[C@H]1CCN(C(=O)[C@@H](Cc2ccc(Cl)cc2)NC(=O)CCN(C)C)C1 [Example 60] | –
1 to 10 µM | CC(C)CC(=O)N(C1CCCC1)[C@H]1CCN(C(=O)[C@@H](Cc2ccc(Cl)cc2)NC(=O)CCN(C)C)C1 [Example 61] | –
0.25 to 1 µM | CN(C)CCC(=O)N[C@H](Cc1ccc(Cl)cc1)C(=O)N1CC[C@H](N(C(=O)c2ccco2)C2CCCC2)C1 [Example 64] | –
1 to 10 µM | CC(C)CN(C(=O)c1ccco1)[C@H]1CCN(C(=O)[C@@H](Cc2ccc(Cl)cc2)NC(=O)CCN(C)C)C1 [Example 65] | –
